How the values were obtained:
[1] = Rat plasma protein binding; assay type: in vitro ADME
From the text: (§1) Supplement KCHL_A_2122309_SM6747.docx, table 1 | column: SSI-5; SSI-3; SSI-4; SSI-1; SSI-6

Cav1.2 = Cav1.2 (Homo sapiens, UniProt Q13936); assay: Global Counterscreen Cav1.2
From the text: as §1

[2] = target: (Homo sapiens, UniProt Q12809); assay: Global Counterscreen MK499 binding
From the text: as §1

hERG = hERG (Homo sapiens, UniProt Q12809); assay: Functional Ion Channel Panel hERG; assay type: biochemical; details: read-out: hERG %inh
From the text: (§2) Supplement KCHL_A_2122309_SM6747.docx, table 1 | column: SSI-5; SSI-3; SSI-4; SSI-1

Iks = Iks (Homo sapiens, UniProt P51787); assay: Functional Ion Channel Panel Iks; assay type: biochemical; details: read-out: Iks %inh
From the text: as §2

Adrenergic α1D = target: T1, Adrenergic α1D (Homo sapiens, UniProt P25100); assay: Panlabs selection; assay type: binding
T1 construct: Panlabs
From the text: as §2

Adrenergic α2A = target: T2, Adrenergic α2A (Homo sapiens, UniProt P08913); assay: Panlabs selection; assay type: binding
T2 construct: Panlabs
From the text: as §2

Adrenergic α2B = target: T3, Adrenergic α2B (Homo sapiens, UniProt P18089); assay: Panlabs selection; assay type: binding
T3 construct: Panlabs
From the text: as §2

Adrenergic α2C = target: T4, Adrenergic α2C (Homo sapiens, UniProt P18825); assay: Panlabs selection; assay type: binding
T4 construct: Panlabs
From the text: as §2

Histamine H1 = target: T5, Histamine H1 (Homo sapiens, UniProt P35367); assay: Panlabs selection; assay type: binding
T5 construct: Panlabs
From the text: as §2

Melanocortin MC5 = target: T6, Melanocortin MC5 (Homo sapiens, UniProt P33032); assay: Panlabs selection; assay type: binding
T6 construct: Panlabs
From the text: as §2

Serotonin 5-HT2B = Serotonin 5-HT2B (Homo sapiens, UniProt P41595); assay: Panlabs selection; assay type: binding
From the text: as §2

Transporter, Choline = Transporter, Choline (Homo sapiens, UniProt Q9GZV3); assay: Panlabs selection; assay type: binding
From the text: as §2

[3] = target: Transporter, Dopamine DAT (Homo sapiens, UniProt Q01959); assay: Panlabs selection; assay type: binding
From the text: as §2

[4] = target: Transporter, Norepinephrine NET (Homo sapiens, UniProt P23975); assay: Panlabs selection; assay type: binding
From the text: as §2

Nicotinic Acetylcholine = assay: Panlabs selection; assay type: binding
From the text: Supplement KCHL_A_2122309_SM6747.docx, table 1 | column: SSI-5; SSI-4; SSI-1

NAChR α3β4 = target: T7, NAChR α3β4 (Homo sapiens, UniProt P30926+P32297); assay: Panlabs selection; assay type: binding
T7 construct: Panlabs

Nav1.6 [5] = target: T8, Nav1.6 (Homo sapiens, UniProt Q9UQD0); assay: PatchXpress automated patch clamp, hyperpolarized-state protocol; assay type: cell-based; set-up: expressed in transfected cells; details: for IC50: HEK 293 cells, hyperpolarized protocol
Description: (§3) Sodium currents were recorded from recombinant Human Embryonic Kidney 293 cell lines stably overexpressing the respective sodium channel type (NaV1.2, 1.5, 1.4, 1.6, 1.7). Recording solutions were comprised of the following (in mM): Internal solution: 30 CsCl, 5 HEPES, 10 EGTA, 120 CsF, 5 NaF, 2 MgCl2, pH = 7.3 with CsOH; External solution 1: 40 NaCl, 120 NMDG, 1 KCl, 0.5 MgCl2, 5 HEPES, 2.7 CaCl2, pH to 7.3 with NaOH, used for NaV1.5 recordings; External solution 2: 150 NaCl, 5 KCl, 2 CaCl2, 1 MgCl2, 10 HEPES, 12 Dextrose, pH 7.3 with NaOH, used for NaV1.7, 1.6, 1.4, and 1.2 recordings.
(§4) Whole-cell currents were recorded from cells stably expressing NaV channels using the PatchXpress 7000A automated patch clamp platform (Molecular Devices, LLC; Sunnyvale, CA). A portable air-conditioning unit was installed on the PatchXpress instruments to maintain the temperature of the headstage at 21°C. Cells were voltage clamped at −60 mV for cell detection and sealing. At the start of each recording, a voltage curve and an inactivation curve was run for each cell to determine the voltage at which 50% of the channels reside in the inactivated state (V0.5 inact). The voltage curve was used to determine if the cell was adequately clamped; cells with currents larger than 10nA or with space clamp issues were not used further.
NaV1.7, NaV1.6, NaV1.4: Compound potency was measured in a hyperpolarized-state protocol where the holding potential for each cell was set to V0.5inact – 20 mV. A pulse train consisting of 7 consecutive double pulses, 8 second hypepolarizing prepulse to −120 mV followed by a test pulse to −10 mV was applied at a frequency of 0.1 Hz. First, vehicle (0.3% DMSO) was added to establish a baseline measurement. Once baseline was established, test compounds were added. Cells were exposed to compound for 5 minutes at 20 mV negative to V0.5inact then exposed to the same hyperpolarized voltage protocol. (no pulsing during compound incubation). A washout was performed to measure recovery of the sodium currents from inhibition.
Recordings were included for analysis when current amplitude reached steady-state in vehicle, compound inhibition was concentration-dependent and currents recovered during wash-out periods. Raw data from PatchXpress experiments were retrieved from the database and analyzed using the DataXpress 2 software (Molecular Devices).
At least 3 concentrations (3–9 replicates per concentration) were tested and at least one concentration had to cause 20–80% current inhibition.

Nav1.6 [6] = target: T8, Nav1.6; assay: Nav1.6 binding; set-up: expressed in transfected cells; host or cells: HEK cells; details: read-out: Nav1.6 bind Ki
From the text: as §1

Nav1.6 [7] = target: T8, Nav1.6; assay: PX Nav1.6 IC50 (supplement); assay type: cell-based; set-up: expressed in transfected cells; host or cells: HEK cells
Description: as §3
as §4, with “The voltage curve was used to determine if the cell was adequately clamped; cells with currents larger than 10nA or with space clamp issues were not used further.” left out
NaV1.7, NaV1.6, NaV1.4: Compound potency was measured in a hyperpolarized-state protocol where the holding potential for each cell was set to V0.5inact – 20 mV. […]

T8 sequence (Q9UQD0 whole entry): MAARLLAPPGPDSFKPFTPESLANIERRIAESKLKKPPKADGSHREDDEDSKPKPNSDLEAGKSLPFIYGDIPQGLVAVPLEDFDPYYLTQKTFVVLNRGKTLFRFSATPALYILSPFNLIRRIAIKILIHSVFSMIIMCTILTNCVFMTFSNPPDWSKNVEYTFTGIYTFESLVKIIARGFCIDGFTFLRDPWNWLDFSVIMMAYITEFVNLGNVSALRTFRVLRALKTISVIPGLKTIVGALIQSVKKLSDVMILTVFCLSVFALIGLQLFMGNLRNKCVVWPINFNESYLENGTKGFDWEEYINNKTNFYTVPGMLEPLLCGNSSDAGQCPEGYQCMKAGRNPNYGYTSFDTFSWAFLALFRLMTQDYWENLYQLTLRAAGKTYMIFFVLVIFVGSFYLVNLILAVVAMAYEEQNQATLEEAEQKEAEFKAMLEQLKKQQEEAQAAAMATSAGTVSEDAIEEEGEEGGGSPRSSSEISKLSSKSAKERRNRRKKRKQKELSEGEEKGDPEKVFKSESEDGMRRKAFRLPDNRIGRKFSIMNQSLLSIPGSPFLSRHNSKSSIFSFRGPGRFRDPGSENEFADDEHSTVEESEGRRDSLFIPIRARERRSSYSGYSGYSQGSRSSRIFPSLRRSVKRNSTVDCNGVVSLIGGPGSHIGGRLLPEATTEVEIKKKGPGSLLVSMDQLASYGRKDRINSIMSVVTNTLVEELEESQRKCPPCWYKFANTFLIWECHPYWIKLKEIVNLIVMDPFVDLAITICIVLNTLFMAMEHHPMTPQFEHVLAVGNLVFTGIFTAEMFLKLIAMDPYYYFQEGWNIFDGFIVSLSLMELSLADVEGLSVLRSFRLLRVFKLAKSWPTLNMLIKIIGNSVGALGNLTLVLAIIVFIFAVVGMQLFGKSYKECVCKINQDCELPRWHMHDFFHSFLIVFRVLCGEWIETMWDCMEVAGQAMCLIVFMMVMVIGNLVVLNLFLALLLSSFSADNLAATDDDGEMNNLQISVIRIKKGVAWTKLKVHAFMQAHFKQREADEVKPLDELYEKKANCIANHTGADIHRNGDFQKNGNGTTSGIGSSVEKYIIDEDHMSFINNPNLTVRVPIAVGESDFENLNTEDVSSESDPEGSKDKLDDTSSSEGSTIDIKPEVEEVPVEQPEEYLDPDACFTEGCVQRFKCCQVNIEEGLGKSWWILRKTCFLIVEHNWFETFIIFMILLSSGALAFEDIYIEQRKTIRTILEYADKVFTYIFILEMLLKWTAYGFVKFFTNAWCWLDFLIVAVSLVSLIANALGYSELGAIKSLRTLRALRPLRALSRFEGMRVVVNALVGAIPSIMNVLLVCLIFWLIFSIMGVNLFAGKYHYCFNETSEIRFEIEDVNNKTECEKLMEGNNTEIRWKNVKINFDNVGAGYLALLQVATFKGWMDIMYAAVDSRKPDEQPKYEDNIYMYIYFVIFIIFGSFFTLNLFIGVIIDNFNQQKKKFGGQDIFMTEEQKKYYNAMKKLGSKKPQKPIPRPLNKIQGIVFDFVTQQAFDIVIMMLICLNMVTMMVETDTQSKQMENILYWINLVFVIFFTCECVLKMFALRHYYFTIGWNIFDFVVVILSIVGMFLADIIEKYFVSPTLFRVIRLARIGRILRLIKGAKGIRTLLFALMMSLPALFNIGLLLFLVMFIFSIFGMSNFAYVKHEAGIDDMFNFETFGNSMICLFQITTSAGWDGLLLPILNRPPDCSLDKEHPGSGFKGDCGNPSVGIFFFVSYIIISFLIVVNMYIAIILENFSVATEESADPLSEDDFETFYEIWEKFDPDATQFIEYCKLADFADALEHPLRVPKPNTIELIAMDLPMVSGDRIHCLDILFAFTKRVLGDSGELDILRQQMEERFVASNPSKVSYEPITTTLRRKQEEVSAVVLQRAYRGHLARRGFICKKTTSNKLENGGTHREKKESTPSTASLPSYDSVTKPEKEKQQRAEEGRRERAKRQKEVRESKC
(Homo sapiens, UniProt Q12809), sequence (Q12809 whole entry): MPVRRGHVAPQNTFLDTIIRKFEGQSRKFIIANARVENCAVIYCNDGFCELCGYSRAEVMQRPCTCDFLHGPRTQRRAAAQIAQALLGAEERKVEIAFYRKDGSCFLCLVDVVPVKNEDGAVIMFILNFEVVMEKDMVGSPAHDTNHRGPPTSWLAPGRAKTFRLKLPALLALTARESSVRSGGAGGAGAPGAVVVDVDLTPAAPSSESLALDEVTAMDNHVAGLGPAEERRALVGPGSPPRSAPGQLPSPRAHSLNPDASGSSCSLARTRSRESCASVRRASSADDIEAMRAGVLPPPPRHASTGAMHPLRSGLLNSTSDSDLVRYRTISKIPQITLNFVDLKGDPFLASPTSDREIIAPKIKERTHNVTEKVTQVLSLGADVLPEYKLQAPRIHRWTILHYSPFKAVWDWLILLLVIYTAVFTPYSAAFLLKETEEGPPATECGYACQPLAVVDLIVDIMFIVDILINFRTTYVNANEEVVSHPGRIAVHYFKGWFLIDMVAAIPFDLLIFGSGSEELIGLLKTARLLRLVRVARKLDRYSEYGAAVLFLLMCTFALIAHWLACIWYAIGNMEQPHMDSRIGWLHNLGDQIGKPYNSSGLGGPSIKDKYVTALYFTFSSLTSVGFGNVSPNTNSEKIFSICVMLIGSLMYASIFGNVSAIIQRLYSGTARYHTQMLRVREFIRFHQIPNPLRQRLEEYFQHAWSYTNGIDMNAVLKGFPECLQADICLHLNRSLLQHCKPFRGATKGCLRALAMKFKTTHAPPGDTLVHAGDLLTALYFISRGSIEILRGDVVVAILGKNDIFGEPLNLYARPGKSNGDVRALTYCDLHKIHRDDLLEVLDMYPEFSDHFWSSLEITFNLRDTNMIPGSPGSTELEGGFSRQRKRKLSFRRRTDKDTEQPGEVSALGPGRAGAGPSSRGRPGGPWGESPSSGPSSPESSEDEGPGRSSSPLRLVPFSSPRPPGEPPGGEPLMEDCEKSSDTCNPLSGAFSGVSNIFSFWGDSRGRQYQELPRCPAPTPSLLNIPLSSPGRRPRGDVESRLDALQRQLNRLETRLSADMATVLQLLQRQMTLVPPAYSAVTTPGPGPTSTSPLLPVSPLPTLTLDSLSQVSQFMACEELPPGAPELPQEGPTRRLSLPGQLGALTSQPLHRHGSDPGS
T5 sequence (P35367 whole entry): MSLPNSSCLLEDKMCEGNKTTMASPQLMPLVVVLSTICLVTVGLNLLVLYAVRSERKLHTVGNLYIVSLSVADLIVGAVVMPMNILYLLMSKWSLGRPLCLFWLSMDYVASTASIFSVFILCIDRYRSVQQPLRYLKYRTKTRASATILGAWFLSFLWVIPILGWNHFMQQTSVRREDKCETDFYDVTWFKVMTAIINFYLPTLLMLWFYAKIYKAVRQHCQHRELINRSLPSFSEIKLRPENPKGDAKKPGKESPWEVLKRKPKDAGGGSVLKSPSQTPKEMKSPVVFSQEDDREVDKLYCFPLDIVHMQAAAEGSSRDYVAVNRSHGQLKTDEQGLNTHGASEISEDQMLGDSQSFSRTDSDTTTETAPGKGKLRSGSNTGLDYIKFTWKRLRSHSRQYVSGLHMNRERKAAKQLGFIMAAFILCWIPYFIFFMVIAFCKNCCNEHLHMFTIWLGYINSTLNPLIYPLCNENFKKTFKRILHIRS
Transporter, Choline, sequence (Q9GZV3 whole entry): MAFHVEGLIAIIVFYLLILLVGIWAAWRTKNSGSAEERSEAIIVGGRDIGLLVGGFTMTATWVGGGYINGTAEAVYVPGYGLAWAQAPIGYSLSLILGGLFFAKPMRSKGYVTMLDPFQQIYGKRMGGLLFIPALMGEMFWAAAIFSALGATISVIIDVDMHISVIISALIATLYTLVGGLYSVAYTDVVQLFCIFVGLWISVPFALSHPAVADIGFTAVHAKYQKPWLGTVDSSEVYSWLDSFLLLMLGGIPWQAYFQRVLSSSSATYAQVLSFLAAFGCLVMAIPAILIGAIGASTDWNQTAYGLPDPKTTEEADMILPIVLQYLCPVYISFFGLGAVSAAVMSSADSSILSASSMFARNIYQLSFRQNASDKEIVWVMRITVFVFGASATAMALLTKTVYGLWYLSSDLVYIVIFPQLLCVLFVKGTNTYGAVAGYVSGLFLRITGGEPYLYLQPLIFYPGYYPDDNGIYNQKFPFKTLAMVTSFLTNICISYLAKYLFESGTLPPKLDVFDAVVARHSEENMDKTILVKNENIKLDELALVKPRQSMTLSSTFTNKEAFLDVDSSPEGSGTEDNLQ
Transporter, Norepinephrine NET, sequence (P23975 whole entry): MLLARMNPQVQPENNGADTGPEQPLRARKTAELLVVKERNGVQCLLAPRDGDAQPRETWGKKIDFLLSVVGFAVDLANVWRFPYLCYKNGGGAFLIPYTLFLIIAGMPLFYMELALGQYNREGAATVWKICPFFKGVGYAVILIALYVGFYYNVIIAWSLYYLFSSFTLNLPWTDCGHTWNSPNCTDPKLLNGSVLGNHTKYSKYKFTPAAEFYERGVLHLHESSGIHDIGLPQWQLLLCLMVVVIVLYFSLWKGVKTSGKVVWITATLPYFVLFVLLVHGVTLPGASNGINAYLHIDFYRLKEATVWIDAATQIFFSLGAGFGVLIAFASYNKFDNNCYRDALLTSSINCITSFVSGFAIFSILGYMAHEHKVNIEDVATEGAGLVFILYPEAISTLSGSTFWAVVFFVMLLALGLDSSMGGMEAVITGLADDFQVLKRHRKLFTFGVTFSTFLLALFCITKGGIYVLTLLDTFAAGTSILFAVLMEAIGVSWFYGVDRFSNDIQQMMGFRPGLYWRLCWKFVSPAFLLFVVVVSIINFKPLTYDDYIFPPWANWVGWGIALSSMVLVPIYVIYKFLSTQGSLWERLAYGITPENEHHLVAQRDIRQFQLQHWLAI

O=S(=O)(Nc1nccs1)c1cc(Cl)c(NCCCCNC[C@H]2CCCN2)cc1F [SSCI-1]
fraction unbound [1]: 0.067
IC50 (Cav1.2): > 30 µM
Ki [2]: > 54 µM
inhibition at 30 µM (hERG): 22%
inhibition at 30 µM (Iks): -1%
Ki (Adrenergic α1D): > 10 µM
Ki (Adrenergic α2A): > 10 µM
Ki (Adrenergic α2B): > 10 µM
Ki (Adrenergic α2C): > 10 µM
Ki (Histamine H1): > 10 µM
Ki (Melanocortin MC5): > 10 µM
Ki (Serotonin 5-HT2B): > 10 µM
Ki (Transporter, Choline): 3.19 µM
Ki [3]: 0.98 µM
Ki [4]: 3.93 µM
Ki (Nicotinic Acetylcholine): > 10 µM
Ki (NAChR α3β4): > 10 µM
IC50 (Nav1.6 [5]): > 30 µM
Ki (Nav1.6 [6]): 47.1 nM
IC50 (Nav1.6 [7]): 18.2 µM

C[C@H](c1cccc2c1CNCC2)n1c(=O)oc2cc(S(=O)(=O)Nc3ncns3)ccc21 [SSCI-3]
IC50 (Nav1.6 [5]): 1.11 µM

N#Cc1cc(S(=O)(=O)Nc2cscn2)ccc1Oc1ccc(Cl)cc1-c1ccnn1C1CNC1 [SSCI-5]
IC50 (Nav1.6 [5]): 4.61 µM

COc1ccc(CCC(c2cccc3c2CNCC3)n2c(=O)oc3cc(S(=O)(=O)Nc4ncns4)c(F)cc32)cc1 (centres unmarked) [SSCI-6]
fraction unbound [1]: 0.018
IC50 (Cav1.2): 24 µM
Ki [2]: 17 µM
fold more potent at inhibiting NaV1.6 channels (Nav1.6 [5]): approximately 10 fold
IC50 (Nav1.6 [5]): 0.023 µM
Ki (Nav1.6 [6]): 0.08 nM
IC50 (Nav1.6 [7]): 0.018 to 0.036 µM

Source: paper PMC9578445, “Association of respiratory failure with inhibition of NaV1.6 in the phrenic nerve” (Channels, 2022)
